Results taken from patent US11752127B2, “Methods and compositions for treatment of anxiety in animals” (CANOPY GROWTH CORPORATION, priority 2019, dated 2023).

Columns and labels:
[1] = system: car ride model of fear and anxiety; assay: Car-ride model of fear and anxiety in dogs (10-minute car ride); assay type: in vivo, Beagle dogs; conditions: for Cortisol response to car ride: differed significantly from baseline
Experimental: A Car-Ride Model for fear and anxiety was used to assess the anxiolytic properties of a cannabidiol formulation on dog subjects. One of the objectives of this study was to determine the anxiolytic effectiveness of orally dosed CBD-enriched cannabidiol formulation at three dose levels, namely at: 4 mg/kg CBD; 12 mg/kg CBD; and 25 mg/kg CBD as compared to a placebo control in a car ride model of fear and anxiety.
Enrollment into the study was based on the subject's baseline activity response to a car ride. Twenty-four (24) Beagle Dogs were screened for car-ride induced elevation of blood cortisol. The initial screening occurred over a 10-day period. Sixteen of the 24 dogs were selected to be used in the subsequent efficacy trial. The schedule of operations for the baseline screen is outlined in Table 1.
The subsequent dose-finding efficacy trial was a blinded pre-clinical trial with sixteen (16) dogs. Dogs were allocated to four treatment groups each containing four (4) dogs based on the baseline response to the car-ride model. In the car-ride model, the dogs were placed in a travel crate secured in the back of a transport vehicle. Anxiety was assessed by monitoring behavior and heart rate during the car ride, and by blood cortisol measures after the car ride. A Williams design was used in which 3 dose levels of the drug and a placebo control were evaluated, with every dog being tested on every condition. Thus, the study had four cycles: four (4) groups of four (4) dogs each, with two (2) males and two (2) females per group, were given four (4) cycles of either one of three increasing doses of a cannabidiol-enriched liquid formulation or the vehicle (medium chain triglyceride solution without cannabidiol), each in a volume of 4 mL. Actives or placebo were administered on the fourth day of each cycle, four (4) hours (±15 minutes) before exposure to a 10-minute car ride in a controlled setting. Each dosing cycle was seven (7) days, so there were seven (7) days between doses.
(§1) Anxiety behavioral data measures were recorded, as was serum cortisol levels (an anxiety/stress-related biomarker), heart rate and blood cannabidiol content. Subjects were dosed once during each arm, approximately four (4) hours prior to the car ride test. Blood samples for measurements of cortisol and CBD were taken on two occasions during each arm. The first was on day 1, a no treatment day. The second was within 10 minutes (±2 minutes) following the car ride. Both blood samples were taken as closely as possible to the same time of day. Heart rate was continuously measured during the car ride. There were seven days of washout between treatment days. For the sake of scheduling, the 16 dogs were tested in two cohorts, with eight (8) dogs tested per cohort day. The test schedule that followed is outlined in Table 2.
Treatment conditions as follows: High Dose: 25 mg/kg CBD; Medium Dose: 12 mg/kg CBD; Low Dose: 4 mg/kg CBD; Placebo control: MCT (Medium Chain Triglyceride) solution. The animals were handled and cared for as similarly as possible throughout the study. The study used a Williams design. The experimental unit were one individual dog and the number of dogs per treatment sequence was four (4), each containing two (2) males and two (2) females.
The study was a blinded pre-clinical trial carried out in a standardized environment. Sixteen (16) dogs (8 males and 8 females) were included in the study. A Williams design, in which all test subjects receive all three dosages and one placebo were used. Four (4) groups of four (4) dogs each, with two (2) males and two (2) females per group, will be given four (4) cycles of either one of three increasing doses of a Cannabidiol-enriched liquid formulation or the vehicle (medium chain triglyceride solution without cannabidiol), each in a volume of 4 mL. Actives or placebo were administered on the fourth day of each cycle, four (4) hours (±15 minutes) before exposure to a 10-minute car ride. […]

[2] = Blood CBD and 7-COOH-CBD levels pre- and post-car ride (mass spectrometry); assay type: in vivo, Beagle dogs
Experimental: as §1
Blood was collected for health profiling on day −8 and 2 mL and was placed into each a potassium oxalate/sodium fluoride, SST and K2EDTA tube. Whole blood collections for the purpose of cortisol and cannabidiol analysis were taken on eight occasions. Four (4) ml blood samples were collected from a suitable vein according to standard operating procedure for baseline 1 day prior to the car and 10 minutes (±2 minutes) after each car ride for cortisol and cannabidiol analysis. Prior to the baseline sample, subjects were placed in a quiet metabolic cage for 30 minutes (±2 minutes) for a more accurate reading of cortisol at rest. Two (2) ml blood were placed into a 2 ml SST tube and allowed to set until clotted. Serum was separated by centrifugation (2800-3200 rpm for 10 minutes at room temperature) and removed into a new serum blood tube. One aliquot of serum (0.5 ml) was placed into a cryovial and stored at approximately −80° C. for future analysis as necessary. […] Samples were analysed by mass spectrometry for the presence of cannabidiols and in particular CBD.
Post-car ride CBD levels were analyzed as a function of Dose using non-parametric analysis of variance.
Pre-car ride CBD levels were analyzed as a function of previous Dose using non-parametric analysis of variance. […]

[3] = system: noise-induced model of fear and anxiety; assay: Noise-induced (thunderstorm) model of fear and anxiety in dogs, single dose; assay type: in vivo, Beagle dogs
Experimental: A Noise-Induced Model for fear and anxiety was used to assess the anxiolytic properties of a cannabidiol formulation on dog subjects. An objective of this study is to determine the anxiolytic effectiveness of an orally dosed CBD enriched cannabinoid formulation at three dose levels (25 mg/kg, 12 mg/kg, and 4 mg/kg) as compared to a placebo control in a noise-induced model of fear and anxiety.
A preliminary health screen including veterinary examinations and CBC/clinical chemistry blood work analysis was first used to select thirty-two (32) Beagle dogs for the Baseline Screening phase of this study. […] A four-arm Williams design was used, with four treatment groups of 4 animals per group. Subjects were allocated to the treatment groups (n=4) balanced for sex, serum cortisol, and behavioural (activity) response. On Days 4, 11, 18, and 25 (n=16), dogs were tested on the thunderstorm procedure after administration of one of three dose levels of test article or placebo. Anxiety was assessed by both live monitoring of specific behaviours and through post-trial monitoring of recorded video files, by continuous recording of heart rate during the test, and by analyzing serum cortisol levels after the test. Subjects were dosed once during each arm of the study, approximately 4 hours prior to the thunderstorm test. Blood was taken twice during each arm of the study including baseline phase; once for the purpose of determining resting cortisol levels, collected two days before thunderstorm procedures, and once for the purpose of determining post-thunderstorm cortisol levels as well as blood levels CBD and 7-COOH-CBD, collected 5 minutes (±2 minutes) following the test. Both blood collections were taken at about same time of day. There was a 6-day washout period between treatment days for all subjects.
On the day of testing, each group received a single dose of their assigned treatment according to Table 7 followed by a 6-day washout period prior to the next assessment Animals were dosed 4 hours (±10 minutes) prior to each thunderstorm assessment, at the same time of day on each dosing day. Subjects received either placebo (MCT oil) or CBD extract diluted to the correct concentration of either 4, 12 or 25 mg/kg with appropriate volume of MCT oil to a final volume of 4 mL for each dose. The test article was administered orally by syringe with attention to complete delivery and retention of the intended dose according to standard operating procedures. In the event that a subject vomited or regurgitated within the first 30 minutes of administration, the product was re-administered and time of re-dose was recorded. […]
The thunderstorm test was performed on Study Day −5, 4, 11, 18, and 25; this took place in the open field arena. During the 9-minute task, the first three minutes was designated as the pre-thunder interval, during which the dogs were allowed to freely explore the room in the absence of any external stimuli. During minutes 4-6 (thunder interval) a recorded thunderstorm track was played over a stereo system at approximately 105 dB. Animal behaviour was audio and video recorded for a total of 9 minutes and the following parameters assessed:
1. Distance travelled (m): the distance the animal moves within the room will be tracked and recorded in meters.
2. […] All other behaviours were considered “active” behaviours.
No stimuli were provided over the last three minutes (minutes 7-9). All behavioural parameters were measured as described for the open field test. Video files of each session were recorded to DVD and archived with the study files. […]

[4] = system: thunderstorm noise-induced model of anxiety; assay: Thunderstorm noise-induced model of anxiety after chronic (28-day) CBD administration; assay type: in vivo, dogs
Experimental: The present study was conducted to evaluate the potential antianxiety effects of CBD after chronic administration using a thunderstorm model of anxiety. A placebo-controlled 28-day CBD dosing, behavioral and safety study was conducted in which the anti-anxiety behavioral effects of chronic CBD were evaluated after 7 and 21 days of CBD administration. Anxiety-related behavioral assessments were conducted using a thunderstorm noise-induced model of anxiety. Four different doses of CBD isolate (1, 2, 4 and 12 mg CBD/kg dog's body weight) were administered orally, as a liquid, once a day to fasted dogs. The primary anti-anxiety measures included blood cortisol levels, heart rate, distance traveled, head movements, global anxiety and scanning behavior.

[5] = Phase 1, 12 mg/kg CBD oral, n=4 dogs
[6] = Phase 1, 25 mg/kg CBD oral, n=4 dogs
[7] = all four phases combined, 25 mg/kg CBD oral, n=16 dogs, p=0.05

**Q.** Which results are given for `C=C(C)[C@@H]1CCC(C)=C[C@H]1c1c(O)cc(CCCCC)cc1O` [CBD, cannabidiol]?
**A.** Dogs that lay down during the 10-minute car ride ([1]; Phase 1, 2 of 4 dogs at each of 4, 12, or 25 mg/kg CBD oral, placebo 0 of 4): 50%; Number of dogs across the CBD treatments who lay down during the car ride ([1]; Phase 1, CBD 4, 12, 25 mg/kg combined, placebo none of 4): 6 of 12 dogs; Mean heart rate, effect of treatment ([1]; baseline, placebo, 4, 12 and 25 mg/kg oral, pre-test, min 1-5, min 5-10 of car ride, repeated measures ANOVA): no other significant main effects or interactions; Post-car ride cortisol levels in female dogs ([1]; female dogs, CBD 4, 12, 25 mg/kg oral 4 h before car ride (FIG. 11)): decrease in cortisol levels; Cortisol response to car ride ([1]; high dose 25 mg/kg CBD oral): more effective in reducing the cortisol response than the placebo and low dose treatments; Cortisol response to car ride ([1]; medium dose 12 mg/kg CBD oral): more effective in reducing the cortisol response than the placebo and low dose treatments; Pre-car ride CBD levels as a function of previous dose ([2]; 7 days after previous dose, repeated measures ANOVA, 0.02 level): Previous dose effect was significant; Post-car ride CBD levels as a function of dose ([2]; oral 4, 12, 25 mg/kg CBD or placebo 4 h before car ride, non-parametric analysis of variance, p=0.0000): highly significant dose effect; Distance travelled post-thunder (minutes 7-9), placebo vs CBD ([3]; 25 mg/kg oral 4 h before test, p=0.0445, LMM with treatment and order): significantly larger with placebo than 25 mg/kg; Inactivity frequency post-thunder, placebo vs CBD ([3]; 25 mg/kg oral, p=0.0245, LMM with treatment and order): significantly smaller with placebo than 25 mg/kg; Activity during minutes 1-3 of conditioned anxiety testing ([3]; CBD 4, 12, 25 mg/kg vs placebo): no significant differences; Distance travelled during the 3-minute post-thunder interval (mean±SD) [3, 5]: 3.9±3.9 m; Reduction of distance travelled during the 3-minute post-thunder interval vs placebo [3, 5]: 72%; Distance travelled during the 3-minute post-thunder interval (mean±SD) [3, 6]: 5.5±4.0 m; Distance travelled during the 3-minute thunderstorm noise (mean±SD) [3, 6]: 17.0±8.1 m; Reduction of distance travelled during the 3-minute post-thunder interval vs placebo [3, 6]: 61%; Reduction of distance travelled during the 3-minute thunderstorm noise vs placebo [3, 6]: 29%; Distance travelled during the 3-minute post-thunder interval (mean±SD) [3, 7]: 3.5±3.9 m; Reduction of distance travelled during the 3-minute post-thunder interval vs placebo [3, 7]: 65%; Inactivity, effect of dose ([3]; repeated measures ANOVA, pre-thunder, thunder, post-thunder, p value for dose effect 0.762): no other significant main effects or interactions; Cortisol, day 21 vs day 7 ([4]; 1 and 2 mg CBD/kg oral once a day): greater decrease in cortisol on day 21 than day 7; Visual scanning ([4]; Day 7, 1 mg/kg): most reduced; Global Anxiety Scores during thunder-noise ([4]; after 7 and 21 days of treatment, all groups): decreased; Thunderstorm-induced body movements ([4]; chronic CBD administration): generally decreased; Heart rate ([4]; chronic CBD treatment 1, 2, 4, 12 mg/kg oral once a day): not affected; Global Anxiety Scores during thunder-noise, group with greatest decrease ([4]; day 7, 2 mg/kg): greatest decreases; Head movements ([4]; day 7, two lowest CBD treatment groups (1 and 2 mg/kg)): decreased by day 7; Global Anxiety Scores during thunder-noise, groups with greatest decrease ([4]; day 21, 1, 2 and 4 mg/kg): greatest decreases; Visual scanning ([4]; day 21, 1 and 2 mg/kg): most reduced; Head movements ([4]; day 21, all treatment groups): decline in head movements; Cortisol ([4]; lowest 3 doses (1, 2, 4 mg/kg) oral once a day, days 7 and 21): decline in cortisol; Anti-anxiety effects (stress biomarker, body movements, visual scanning, global anxiety scores) ([4]; three lower CBD doses (1, 2, 4 mg/kg) oral once a day): observable anti-anxiety effects

**Q.** For `C=C(C)[C@@H]1CCC(C(=O)O)=C[C@H]1c1c(O)cc(CCCCC)cc1O` [7-COOH-CBD], which “7-COOH-CBD levels across the 4 dose levels” value ([2]; post-car ride, repeated measures ANOVA) is on record?
**A.** highly significant effect of dose
